According to patent US20260215427A1, “NON-BIPYRIDYL SALT HERBICIDE, PREPARATION METHOD THEREFOR, AND USE THEREOF” (priority 2022, published 2026):

Key:
Acorus calamus = assay: Herbicidal performance, leaf spray under air and sunlight; format: in vivo; conditions: various concentrations (1, 2, 4, 8 times PQ equivalent), air and sunlight
Source text: (§1) As is well-known, Bermuda grass, Arabidopsis thaliana, and Acorus calamus are naturalized green weeds in most parts of the world and are also invasive grasses. Photosynthesis occurs throughout their entire leaves and bundles. […] Therefore, Bermuda grass, Acorus calamus, and Arabidopsis thaliana were selected as plant models to evaluate the herbicidal performance of the compounds in the present invention.
(§2) Under air and sunlight, the compound of formula 2 of the present invention was sprayed on the leaf surface at concentrations of 1, 2, 4, and 8 times the PQ equivalent, respectively. Paraquat herbicide was used as the positive control, and physiological saline was used as the blank control group. The diameter of the observation range was 8 cm.

Arabidopsis thaliana = assay: as above; format: in vivo; conditions: various concentrations (1, 2, 4, 8 times PQ equivalent), air and sunlight
Source text: as §1, §2

Bermuda grass = assay: as above; format: in vivo; conditions: various concentrations (1, 2, 4, 8 times PQ equivalent), air and sunlight
Source text: as §1, §2

mice [1] = assay: PQ-induced lethality in mice, single intraperitoneal injection, dose and timing finding; format: in vivo
Procedure: Firstly, the optimal dose and timing for PQ-induced lethality in mice were determined through single intraperitoneal injection at doses of 20, 30, 40, 50, and 60 (mg/kg). […] Therefore, 50 mg/kg was chosen as the optimal dose. The mouse tissue samples were collected 48 hours after PQ administration.

mice [2] = assay: Acute toxicity test and LD50 determination in mice, intraperitoneal injection; format: in vivo; conditions: 8 mice
Procedure: In order to evaluate the safety of compound 2 of the present invention in vivo, acute toxicity tests were conducted on mice. Firstly, the LD50 of diene diamine in mice was measured. […] The toxicity of diene diamine in mice is low and the safety is high.

mice [3] = assay: Survival rate and body weight of mice after intraperitoneal injection; format: in vivo; conditions: 0.19 mmol/kg intraperitoneal
mice [4] = assay: Organ indices and biochemical indicators 48 hours after intraperitoneal injection in mice; format: in vivo
Source text: P<0.05 is considered statistically significant, with 10 mice per group (n=10).
However, no significant differences in these biochemical indicators were detected after intraperitoneal injection of the compound of formula 2 diene diamine at the same molar concentration.

mice [5] = assay: Damage of major organs (histopathology) 48 hours after intraperitoneal injection in mice; format: in vivo; conditions: 48 hours after intraperitoneal administration
Source text: The data is expressed as mean±standard error, with 6 mice per group (n=6), and P<0.05 indicates statistically significant differences. Scale bar: 50 μm.

mice [6] = assay: Transmission electron microscopy of main organs 48 hours after intraperitoneal injection in mice; format: in vivo; conditions: 0.19 mmol/kg intraperitoneal
Procedure: 48 hours after intraperitoneal injection of 0.19 mmol/kg of paraquat or the compound of formula 2, transmission electron microscopy samples of the lung, liver, kidney, and heart were collected. The black arrow indicated mitochondrial damage, and the electron microscopy scale of the heart group was 200 nm, and the electron microscope scale of other groups was 100 nm.

A549 cells [7] = assay: Direct cytotoxicity, cell viability and IC50; format: cell-based
Source text: (§3) PQ is rapidly absorbed and distributed to the lungs, kidneys, liver, and muscles after entering the human body. Death caused by ingestion of PQ is usually due to multiple organ failure, such as pulmonary edema, kidney and liver failure. Therefore, lung cells (A549 cells), kidney cells (COS-7), and liver cells (Hep G2) were selected to evaluate the direct cytotoxicity of diene diamine.

COS-7 cells [8] = assay: Direct cytotoxicity, cell viability and IC50; format: cell-based
Source text: as §3

Hep G2 cells [9] = assay: Direct cytotoxicity, cell viability and IC50; format: cell-based
Source text: as §3

A549 cells [10] = assay: Intracellular ROS levels, DCF fluorescence, flow cytometry; format: cell-based; conditions: 100 μM, 18 hours
Procedure: (§4) The above three types of cells were exposed to 100 μM PQ (100) and 100 μM of the compound of formula 2 and incubated for 18 hours, and the intracellular reactive oxygen species (ROS) levels were quantified using flow cytometry. Intracellular ROS levels were measured using DCF fluorescence (n=6).

COS-7 cells [11] = assay: as above; format: cell-based; conditions: 100 μM, 18 hours
Procedure: as §4

Hep G2 cells [12] = assay: as above; format: cell-based; conditions: 100 μM, 18 hours
Procedure: as §4

humans = conditions: background data; cited from earlier work
[13] = 50 mg/kg paraquat or same dose, 48 hour

C[n+]1ccc(-c2cc[n+](C)cc2)cc1.[Cl-].[Cl-] [PQ, 1,1-dimethyl-4,4′-bipyridinium dichloride, reference compound]
state of leaves 24 hours after spraying (Acorus calamus): began to wither
state of leaves 24 hours after spraying (Arabidopsis thaliana): began to wither
state of leaves 24 hours after spraying (Bermuda grass): began to wither
lung injury score (mice [1]; 24 hours after PQ administration): significant increase
time point of the highest lung injury score (mice [1]; compared to other time points): 48 h
survival time (mice [1]; single intraperitoneal injection, 20 and 30 mg/kg, all mice): over 168 hours
body weight on the first day (mice [1]; single intraperitoneal injection, 50 or 60 mg/kg): significant weight loss
Mortality, n (%) Day 1 (mice [2]; 300 mg/kg intraperitoneal): 0 (0) n (%)
Mortality, n (%) Day 7 (mice [2]; 300 mg/kg intraperitoneal): 0 (0) n (%)
Mortality, n (%) Day 1 (mice [2]; 600 mg/kg intraperitoneal): 0 (0) n (%)
Mortality, n (%) Day 7 (mice [2]; 600 mg/kg intraperitoneal): 0 (0) n (%)
Mortality, n (%) Day 1 (mice [2]; 900 mg/kg intraperitoneal): 3 (37.5) n (%)
Mortality, n (%) Day 7 (mice [2]; 900 mg/kg intraperitoneal): 3 (37.5) n (%)
Mortality, n (%) Day 1 (mice [2]; 1050 mg/kg intraperitoneal): 3 (37.5) n (%)
Mortality, n (%) Day 7 (mice [2]; 1050 mg/kg intraperitoneal): 3 (37.5) n (%)
Mortality, n (%) Day 1 (mice [2]; 1200 mg/kg intraperitoneal): 8 (100) n (%)
Mortality, n (%) Day 7 (mice [2]; 1200 mg/kg intraperitoneal): 8 (100) n (%)
weight of the mice (mice [3]): continued to decrease
mice died (mice [3]; within 112 hours after administration): 100%
levels of SOD and CAT in lung tissue (mice [4]; [13]): significantly decreased
serum levels of TNF-α, IL-B, IL-6, AST, ALT, SCr, BUN, and uric acid (mice [4]; [13]): significantly increased
lung, liver, and kidney indices compared with the control group (mice [4]; 50 mg/kg paraquat or same molar dose, 48 hours): significantly increased
cardiac index (mice [4]; 50 mg/kg paraquat or same molar dose, 48 hours, among the three groups): no statistical difference
pathological damage of major tissues (lung, liver, kidney, heart) (mice [5]): multiple organic damages accompanied by significant inflammation
tissue damage scores of the main organs (mice [5]): significantly higher than those in the control group and the diene diamine group
mitochondrial structure in lung, liver, kidney, and heart tissues (transmission electron microscopy) (mice [6]): mitochondrial damage such as swelling, vacuolization, blurring, or fragmentation
cell viability (A549 cells [7]; A549, co-culture 24 hours, concentration gradient): direct cytotoxic effects
IC50 (A549 cells [7]; A549 cells, 24 hours): 322 µM
cell viability (COS-7 cells [8]; COS-7, co-culture 24 hours, concentration gradient): direct cytotoxic effects
IC50 (COS-7 cells [8]; Cos-7 cells, 24 hours): 114 µM
cell viability (Hep G2 cells [9]; Hep G2, co-culture 24 hours, concentration gradient): direct cytotoxic effects
IC50 (Hep G2 cells [9]; hep G2 cells, 24 hours): 131 µM
intracellular ROS production (A549 cells [10]): significant increase in ROS production
intracellular ROS production (COS-7 cells [11]): significant increase in ROS production
intracellular ROS production (Hep G2 cells [12]): significant increase in ROS production
mortality rate of toxic ingestion incidents (humans): 50-90%
